Columns and labels:
[1] = test system: Neurons cultured from neonatal mice; assay: Calcium imaging of spontaneous network activity (GCaMP reporter); format: cell-based, mouse; conditions: for correlation of spontaneous activity (Pearson correlation matrix): cytokine-stimulated cultures vs vehicle control (overall uncorrelated); for correlation of spontaneous activity (Pearson correlation matrix) / absolute number of spontaneously active cells: FIG. 7; for absolute number of spontaneously active cells: cytokine-stimulated networks, vehicle control 42 neurons
Experimental: The PBS control cultures show low amplitude calcium transients that are non-synchronous. […] Calcium levels were monitored using a fluorescent reporter transduced into the neurons with […].
The Pearson correlation matrix was calculated for all of the neurons showing spontaneous activity in the culture and heat-mapped (red=highly correlated activity; blue=uncorrelated activity). In the vehicle control neurons, there is a small cluster of synchronous activity but the overall network is uncorrelated.
Neurons are cultured in glass imaging chambers under conditions that promote formation of mature synaptic networks. Cells are infected with an AAV1.Syn.GCaMP6f calcium reporter that provides fast optical tracking of intracellular calcium levels (Akerboom et al., 2012, J. Neurosci., 32:[…]; Chen et al., 2013, Nature, 499:295-300). Calcium levels are monitored in real-time using a Zeiss 5-Live confocal microscope equipped with environmental chamber. Following collection of baseline spontaneous activity levels at low magnification, inflammatory cytokine is added at the optimal cytokine concentration determined above, and cells are followed for up to 60 minutes. Images are post-processed in Image J to measure calcium transient amplitudes and frequencies within defined cells. In some experiments, an Olympus multi-photon microscope is used at high magnification to track activity in individual synapses. In addition to spontaneous activity, calcium flux elicited by addition of glutamate to cultures that have been pretreated with inflammatory cytokines for different times (0, 1, 3, 6, 12, 24, 48, 72, or 96 hr) prior to stimulation also is measured.
Neurons were cultured from neonatal mice and stimulated with TNF alpha (100 ng/mL) or IFN gamma (500 U/mL) for 24 hr. Following transduction with an AAV-encoded GCaMPf reporter, fast calcium transients were imaged in the cells. Regions of interest outlining individual neurons were defined in each frame of movies collected over several minutes, and the fluorescence intensity of each cell was graphed through time to reveal patterns in the population response.

Mouse cortical neurons [2] = assay: IFN gamma-induced transcriptional changes, Illumina BeadArray; format: cell-based; conditions: IFN gamma 500 U/mL, 24 hr, vs untreated controls; mean±95% confidence intervals
Experimental: Cortical neurons were prepared from embryonic day 15 C57BL/6 mouse fetuses, following published protocols (Sauer et al., 2013, Neurobiol. Dis., 59:194-205). In preliminary experiments, after one week in vitro, the neurons were stimulated for 24 hr with IFN gamma (500 U/mL). Quadruplicate RNA samples were collected under treated and untreated conditions, and changes in gene expression were assessed using the Illumina BeadArray system. Only genes that were detected at P<0.05 on the array were considered for further analysis. Expression levels were […] and the relative level of expression following IFN gamma stimulation was compared to untreated controls. Table 1 provides mean±95% confidence intervals; the appropriate statistical test was chosen based on normality and equal variance tests.

Mouse cortical neurons [3] = assay: IFN gamma stimulation of distal axons in two-chamber device, microarray of cell body RNA; format: cell-based; conditions: IFN gamma added to axon chamber, RNA from cell body chamber 72 hours later
Experimental: Mouse cortical neurons were cultured in a two-chamber device that separates cell bodies from axons. Panel A is a schematic of the chambered device constructed in PDMS polymer. Panel B is a low-magnification image of the corresponding regions shown in Panel A stained with an antibody against neurofilament (an axon-specific protein). Higher magnification images are shown of the cell body chamber (Panel C), the axon grooves (Panel D), and the axon chamber (Panel E). DAPI staining indicates the complete absence of any cells in the axon chamber. Panel F is a schematic showing the experimental design: IFNgamma was added to the pure axons in the axon chamber; RNA was collected from the cell body chamber 72 hours later and analyzed by microarray to identify changes in gene expression.
Mouse cortical neurons were cultured in a two-chamber device that separates cell bodies from axons.
IFN gamma was added to the pure axons in the axon chamber, and RNA was collected from the cell body chamber 72 hours later. The RNA was analyzed by microarray to identify changes in gene expression.

[4] = TNF alpha 100 ng/mL or IFN gamma 500 U/mL for 24 hr, FIGS. 8B and 8C

## NCCCC(=O)O [GABA, reference compound]
[1]; 27 μM GABA added to control cultures, FIG. 8E
  averaged calcium responses / synaptic activity: completely suppresses synaptic activity

## IFN gamma: inflammatory cytokine interferon gamma used to stimulate neurons
Mouse cortical neurons [2]
  Fold Change, gene Actb (housekeeping): 1.04 ± 0.06 fold
  Fold Change, gene Aldh1a1: 2.46 ± 0.08 fold
  Fold Change, gene Collybistin: 0.71 ± 0.06 fold
  Fold Change, gene GABA A R α3: 0.66 ± 0.10 fold
  Fold Change, gene GABA A R β1: 0.56 ± 0.09 fold
  Fold Change, gene GABA A R β2: 0.80 ± 0.09 fold
  Fold Change, gene GABA A R β3: 0.75 ± 0.07 fold
  Fold Change, gene GABA A R γ2: 0.64 ± 0.05 fold
  Fold Change, gene GABA B R2: 0.71 ± 0.10 fold
  Fold Change, gene Gapdh: 1.03 ± 0.06 fold
  Fold Change, gene Gch1: 1.59 ± 0.04 fold
  Fold Change, gene Gephyrin: 0.75 ± 0.05 fold
  Fold Change, gene Glycine R β1: 0.59 ± 0.07 fold
  Fold Change, gene MOCOS: 2.97 ± 0.21 fold
  Fold Change, gene Xdh: 1.47 ± 0.14 fold
Mouse cortical neurons [3]
  GTP cyclohydrolase I expression in neuron cell bodies: significantly up-regulated
  MOCOS expression in neuron cell bodies: robust up-regulation
  aldehyde dehydrogenase expression in neuron cell bodies: significantly up-regulated
  gephyrin expression in neuron cell bodies: down-regulation
  glycine receptor beta subunit expression in neuron cell bodies: down-regulation
  xanthine dehydrogenase expression in neuron cell bodies: significantly up-regulated
Mouse cortical neurons [3]; not shown
  GABA receptor elements expression in neuron cell bodies: down-regulation
  gephyrin-binding scaffolds expression in neuron cell bodies: down-regulation
[1]; [4]
  averaged calcium responses / network activity: network bursting and highly synchronized synaptic activity
[1]
  correlation of spontaneous activity (Pearson correlation matrix): nearly complete correlation across the entire network
  absolute number of spontaneously active cells: 137 neurons

## TNF alpha
[1]; [4]
  averaged calcium responses / network activity: network bursting and highly synchronized synaptic activity
[1]
  correlation of spontaneous activity (Pearson correlation matrix): nearly complete correlation across the entire network
  absolute number of spontaneously active cells: 151 neurons
[1]; stimulated for 24 hr, vs PBS control with low amplitude non-synchronous transients, FIG. 6
  spontaneous calcium levels in neurons: large amplitude calcium signals that were highly synchronized

## picrotoxin [reference compound]
[1]; control cultures treated with 2.4 μM picrotoxin, FIG. 8D
  averaged calcium responses / network activity: induces network synchrony and bursting
